From the supplement of paper PMC9663587

Experiments:
Ceritinib/LDK378 = compound: Cc1cc(Nc2ncc(Cl)c(Nc3ccccc3S(=O)(=O)C(C)C)n2)c(OC(C)C)cc1C1CCNCC1 [Ceritinib/LDK378]
THZ-P1-2 = compound: CN(C)C/C=C/C(=O)NC1=CC=C(C=C1)C(=O)NC2=CC=CC(=C2)NC3=NC=NC(=C3)C4=CNC5=CC=CC=C54 [THZ-P1-2]
[1] = compound: CCCCOc1c(C(=O)c2c(F)cc(C)cc2F)c[nH]c2nncc1-2
Saracatinib/AZD0530 = compound: CN1CCN(CCOc2cc(OC3CCOCC3)c3c(Nc4c(Cl)ccc5c4OCO5)ncnc3c2)CC1 [Saracatinib/AZD0530]
Luminespib/NVP-AUY922 = compound: CCNC(=O)c1noc(-c2cc(C(C)C)c(O)cc2O)c1-c1ccc(CN2CCOCC2)cc1 [Luminespib/NVP-AUY922]
BSJ-01-175 = compound: CN(C)C/C=C/C(=O)Nc1ccc(O[C@@H]2CCC[C@@H](Nc3ncc(Cl)c(-c4c[nH]c5ccccc45)n3)C2)cc1 [BSJ-01-175]
Neratinib/HKI272 = compound: CCOc1cc2ncc(C#N)c(Nc3ccc(OCc4ccccn4)c(Cl)c3)c2cc1NC(=O)/C=C/CN(C)C [Neratinib/HKI272]; assay: increase in dead-cell fraction, 72 h; higher = more death;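 further: breast cancer cell lines in 384-well plates, stained with Hoechst plus LIVE/DEAD far red dye and imaged, cells above an LDR intensity threshold counted dead, Hoechst-negative corpses included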
THZ1 = compound: CN(C)C/C=C/C(=O)Nc1ccc(C(=O)Nc2cccc(Nc3ncc(Cl)c(-c4c[nH]c5ccccc45)n3)c2)cc1 [THZ1]; assay: as above
[2] = compound: CCN1CCN(Cc2ccc(Nc3ncc(F)c(-c4cc(F)c5nc(C)n(C(C)C)c5c4)n3)nc2)CC1; assay: as above
YKL-5-124 = compound: C=CC(=O)Nc1ccc(C(=O)Nc2[nH]nc3c2CN(C(=O)N[C@H](CN(C)C)c2ccccc2)C3(C)C)cc1 [YKL-5-124]; assay: as above
THZ531 = compound: CN(C)C/C=C/C(=O)Nc1ccc(C(=O)N2CCC[C@@H](Nc3ncc(Cl)c(-c4c[nH]c5ccccc45)n3)C2)cc1 [THZ531]; assay: as above
LEE011/Ribociclib = compound: CN(C)C(=O)c1cc2cnc(Nc3ccc(N4CCNCC4)cn3)nc2n1C1CCCC1 [LEE011/Ribociclib]; assay: as above
[3] = compound: CC(=O)c1c(C)c2cnc(Nc3ccc(N4CCNCC4)cn3)nc2n(C2CCCC2)c1=O; assay: as above
BSJ-03-123 = compound: CC(=O)c1c(C)c2cnc(Nc3ccc(N4CCN(CCOCCOCCOCCNC(=O)COc5cccc6c5C(=O)N(C5CCC(=O)NC5=O)C6=O)CC4)cn3)nc2n(C2CCCC2)c1=O [BSJ-03-123]; assay: as above
Flavopiridol = compound: CN1CC[C@H](c2c(O)cc(O)c3c(=O)cc(-c4ccccc4Cl)oc23)[C@H](O)C1 [Flavopiridol]; assay: as above
[4] = compound: CCc1cnn2c(NCc3ccc[n+]([O-])c3)cc(N3CCCC[C@H]3CCO)nc12; assay: as above
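Wherever GR50, 72 h is given: breast cancer and non-malignant breast epithelial cell lines, Deep Dye Drop or Dye Drop imaging, nine half-log doses, GR normalized to time-zero plates and DMSO-only controls.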

Cell Line: CAL51
- GR50, 72 h (Ceritinib/LDK378): 0.475 µM
- GR50, 72 h (THZ-P1-2): > 10 µM
- GR50, 72 h [1]: 3.95 µM
- GR50, 72 h (Saracatinib/AZD0530): 1.85 µM
- GR50, 72 h (Luminespib/NVP-AUY922): 0.00639 µM
- GR50, 72 h (BSJ-01-175): 0.432 µM
- increase in dead-cell fraction (Neratinib/HKI272; 0.0003162 µM): 0.0033
- increase in dead-cell fraction (Neratinib/HKI272; 0.001 µM): -0.0017
- increase in dead-cell fraction (Neratinib/HKI272; 0.003162 µM): 0.0074
- increase in dead-cell fraction (Neratinib/HKI272; 0.01 µM): 0.0041
- increase in dead-cell fraction (Neratinib/HKI272; 0.03162 µM): 0.0026
- increase in dead-cell fraction (Neratinib/HKI272; 0.1 µM): 0.0003
- increase in dead-cell fraction (Neratinib/HKI272; 0.3162 µM): -0.0046
- increase in dead-cell fraction (Neratinib/HKI272; 1 µM): -0.0094
- increase in dead-cell fraction (Neratinib/HKI272; 3.162 µM): 0.0911
- increase in dead-cell fraction (THZ1; 0.0001 µM): -0.0022
- increase in dead-cell fraction (THZ1; 0.0003162 µM): -0.0006
- increase in dead-cell fraction (THZ1; 0.001 µM): -0.0009
- increase in dead-cell fraction (THZ1; 0.003162 µM): 0.0009
- increase in dead-cell fraction (THZ1; 0.01 µM): 0.0002
- increase in dead-cell fraction (THZ1; 0.03162 µM): 0.0038
- increase in dead-cell fraction (THZ1; 0.1 µM): 0.0149
- increase in dead-cell fraction (THZ1; 0.3162 µM): 0.046
- increase in dead-cell fraction (THZ1; 1 µM): 0.117
- increase in dead-cell fraction ([2]; 0.001 µM): -0.009
- increase in dead-cell fraction ([2]; 0.003162 µM): -0.0216
- increase in dead-cell fraction ([2]; 0.01 µM): -0.032
- increase in dead-cell fraction ([2]; 0.03162 µM): -0.0343
- increase in dead-cell fraction ([2]; 0.1 µM): -0.0329
- increase in dead-cell fraction ([2]; 0.3162 µM): -0.0295
- increase in dead-cell fraction ([2]; 1 µM): -0.0018
- increase in dead-cell fraction ([2]; 3.162 µM): 0.239
- increase in dead-cell fraction ([2]; 10 µM): 0.727
- increase in dead-cell fraction (YKL-5-124; 0.001 µM): 0.0123
- increase in dead-cell fraction (YKL-5-124; 0.003162 µM): 0.0229
- increase in dead-cell fraction (YKL-5-124; 0.01 µM): 0.0534
- increase in dead-cell fraction (YKL-5-124; 0.03162 µM): 0.0508
- increase in dead-cell fraction (YKL-5-124; 0.1 µM): 0.0599
- increase in dead-cell fraction (YKL-5-124; 0.3162 µM): 0.0693
- increase in dead-cell fraction (YKL-5-124; 1 µM): 0.0723
- increase in dead-cell fraction (YKL-5-124; 3.162 µM): 0.134
- increase in dead-cell fraction (YKL-5-124; 10 µM): 0.192
- increase in dead-cell fraction (THZ531; 0.0001 µM): 0.0035
- increase in dead-cell fraction (THZ531; 0.0003162 µM): 0.0008
- increase in dead-cell fraction (THZ531; 0.001 µM): 0.0008
- increase in dead-cell fraction (THZ531; 0.003162 µM): -0.0007
- increase in dead-cell fraction (THZ531; 0.01 µM): -0.0017
- increase in dead-cell fraction (THZ531; 0.03162 µM): 0.0021
- increase in dead-cell fraction (THZ531; 0.1 µM): 0.0037
- increase in dead-cell fraction (THZ531; 0.3162 µM): 0.019
- increase in dead-cell fraction (THZ531; 1 µM): 0.0391
- increase in dead-cell fraction (LEE011/Ribociclib; 0.001 µM): -0.0032
- increase in dead-cell fraction (LEE011/Ribociclib; 0.003162 µM): -0.0038
- increase in dead-cell fraction (LEE011/Ribociclib; 0.01 µM): -0.0003
- increase in dead-cell fraction (LEE011/Ribociclib; 0.03162 µM): 0.0052
- increase in dead-cell fraction (LEE011/Ribociclib; 0.1 µM): 0.0083
- increase in dead-cell fraction (LEE011/Ribociclib; 0.3162 µM): 0.0065
- increase in dead-cell fraction (LEE011/Ribociclib; 1 µM): 0.0053
- increase in dead-cell fraction (LEE011/Ribociclib; 3.162 µM): 0.0086
- increase in dead-cell fraction (LEE011/Ribociclib; 10 µM): 0.0229
- increase in dead-cell fraction ([3]; 0.0003162 µM): -0.0042
- increase in dead-cell fraction ([3]; 0.001 µM): -0.0013
- increase in dead-cell fraction ([3]; 0.003162 µM): -0.0116
- increase in dead-cell fraction ([3]; 0.01 µM): -0.0114
- increase in dead-cell fraction ([3]; 0.03162 µM): -0.0305
- increase in dead-cell fraction ([3]; 0.1 µM): -0.0374
- increase in dead-cell fraction ([3]; 0.3162 µM): -0.0371
- increase in dead-cell fraction ([3]; 1 µM): -0.036
- increase in dead-cell fraction ([3]; 3.162 µM): -0.029
- increase in dead-cell fraction (BSJ-03-123; 0.001 µM): -0.0039
- increase in dead-cell fraction (BSJ-03-123; 0.003162 µM): -0.0056
- increase in dead-cell fraction (BSJ-03-123; 0.01 µM): -0.004
- increase in dead-cell fraction (BSJ-03-123; 0.03162 µM): -0.0021
- increase in dead-cell fraction (BSJ-03-123; 0.1 µM): -0.0017
- increase in dead-cell fraction (BSJ-03-123; 0.3162 µM): -0.0037
- increase in dead-cell fraction (BSJ-03-123; 1 µM): 0.0033
- increase in dead-cell fraction (BSJ-03-123; 3.162 µM): 0.0021
- increase in dead-cell fraction (BSJ-03-123; 10 µM): 0.128
- increase in dead-cell fraction (Flavopiridol; 0.0001 µM): -0.0023
- increase in dead-cell fraction (Flavopiridol; 0.0003162 µM): 0.0009
- increase in dead-cell fraction (Flavopiridol; 0.001 µM): -0.0005
- increase in dead-cell fraction (Flavopiridol; 0.003162 µM): 0.004
- increase in dead-cell fraction (Flavopiridol; 0.01 µM): 0.0023
- increase in dead-cell fraction (Flavopiridol; 0.03162 µM): 0.006
- increase in dead-cell fraction (Flavopiridol; 0.1 µM): 0.011
- increase in dead-cell fraction (Flavopiridol; 0.3162 µM): 0.068
- increase in dead-cell fraction (Flavopiridol; 1 µM): 0.234
- increase in dead-cell fraction ([4]; 0.0001 µM): -0.0015
- increase in dead-cell fraction ([4]; 0.0003162 µM): -0.0015
- increase in dead-cell fraction ([4]; 0.001 µM): 0.0029
- increase in dead-cell fraction ([4]; 0.003162 µM): 0.0026
- increase in dead-cell fraction ([4]; 0.01 µM): -0.0001
- increase in dead-cell fraction ([4]; 0.03162 µM): 0.437
- increase in dead-cell fraction ([4]; 0.1 µM): 0.584
- increase in dead-cell fraction ([4]; 0.3162 µM): 0.58
- increase in dead-cell fraction ([4]; 1 µM): 0.532
